Target: T1, PH-20 (sperm adhesion molecule 1), immunopurified from human connective tissue cell layers (Homo sapiens, UniProt P38567)
T1 construct: gene SPAM1; 60-65 kDa; no tag
T1 sequence (P38567 36-490): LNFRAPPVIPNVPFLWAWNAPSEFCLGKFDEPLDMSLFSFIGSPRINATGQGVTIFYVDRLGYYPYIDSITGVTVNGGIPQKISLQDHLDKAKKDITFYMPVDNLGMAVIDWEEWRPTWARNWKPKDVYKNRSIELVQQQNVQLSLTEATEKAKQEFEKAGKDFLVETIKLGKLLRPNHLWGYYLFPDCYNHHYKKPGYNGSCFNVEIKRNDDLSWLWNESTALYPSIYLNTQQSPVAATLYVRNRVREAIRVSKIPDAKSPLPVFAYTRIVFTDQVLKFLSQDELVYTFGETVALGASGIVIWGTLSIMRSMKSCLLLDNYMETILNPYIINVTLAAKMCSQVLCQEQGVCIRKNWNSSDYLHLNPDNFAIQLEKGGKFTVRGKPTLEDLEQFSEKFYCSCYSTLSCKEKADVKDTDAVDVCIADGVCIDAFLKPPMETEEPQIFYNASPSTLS
Test: hyaluronan substrate gel electrophoresis (zymography)
Format: biochemical
Conditions: 5 ug/ml apigenin in DMSO; 0.15 M NaCl, 0.5 mM CaCl2, 7 mM 1,4-saccharolactone; pH 6.5; qualitative inhibition

SMILES: O=c1cc(-c2ccc(O)cc2)oc2cc(O)cc(O)c12 [apigenin]
- activity disappeared: hyaluronidase activity purified from cell layers with the immunoaffinity gel (Api(-), right lane), both disappeared

— PMC1175024, “Chondrocytes, synoviocytes and dermal fibroblasts all express PH-20, a hyaluronidase active at neutral pH” (Arthritis Research & Therapy, 2005)
